Measured values: patent publication US9096951B2, “Method for producing second-generation library” (Nuevolution A/S, priority 2003, dated 2015)

Experiments:
Format in all cases: binding
[1] = target: T1, Integrin αvβ3 receptor (Homo sapiens, UniProt P05106+P06756); test: Selection of Library 1 and Library 2 (61,875 members each) for binders of the Integrin αvβ3 receptor, then building block abundance analysis; conditions: value = library (1, 2) in which it was more abundant after selection; for More abundant in position 2 in library no.: building block chosen for Library 3 position 2; for More abundant in position 3 in library no.: building block chosen for Library 3 position 3
T1 sequence (P06756 31-889 limits assumed): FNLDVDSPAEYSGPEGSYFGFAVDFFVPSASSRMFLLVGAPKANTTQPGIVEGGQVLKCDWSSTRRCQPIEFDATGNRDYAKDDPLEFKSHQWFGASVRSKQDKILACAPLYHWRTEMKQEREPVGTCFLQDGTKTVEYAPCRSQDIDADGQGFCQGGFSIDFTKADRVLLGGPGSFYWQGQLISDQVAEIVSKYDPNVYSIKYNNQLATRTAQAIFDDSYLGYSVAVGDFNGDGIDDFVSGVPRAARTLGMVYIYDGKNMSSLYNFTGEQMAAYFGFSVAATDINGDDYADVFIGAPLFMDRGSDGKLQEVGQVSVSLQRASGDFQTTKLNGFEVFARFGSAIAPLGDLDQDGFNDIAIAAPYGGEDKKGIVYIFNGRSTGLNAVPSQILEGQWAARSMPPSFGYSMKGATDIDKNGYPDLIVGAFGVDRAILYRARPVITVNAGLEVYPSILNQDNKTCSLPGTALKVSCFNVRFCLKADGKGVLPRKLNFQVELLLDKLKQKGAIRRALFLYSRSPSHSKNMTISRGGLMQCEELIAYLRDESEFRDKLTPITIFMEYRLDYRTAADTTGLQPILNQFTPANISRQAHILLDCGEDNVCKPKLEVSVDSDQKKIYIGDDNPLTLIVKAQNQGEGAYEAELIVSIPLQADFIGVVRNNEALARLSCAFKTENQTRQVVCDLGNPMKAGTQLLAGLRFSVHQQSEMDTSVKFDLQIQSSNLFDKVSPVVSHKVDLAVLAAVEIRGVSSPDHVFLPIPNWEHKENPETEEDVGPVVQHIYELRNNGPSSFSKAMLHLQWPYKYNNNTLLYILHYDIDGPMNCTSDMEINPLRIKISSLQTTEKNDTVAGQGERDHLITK
T1 sequence (P06756 891-1048 partner limits assumed): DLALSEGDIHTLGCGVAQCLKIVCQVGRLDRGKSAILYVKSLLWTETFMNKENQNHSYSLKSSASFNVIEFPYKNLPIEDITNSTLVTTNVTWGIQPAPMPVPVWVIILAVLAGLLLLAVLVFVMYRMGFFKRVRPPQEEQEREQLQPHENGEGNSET
T1 sequence (P05106 27-788): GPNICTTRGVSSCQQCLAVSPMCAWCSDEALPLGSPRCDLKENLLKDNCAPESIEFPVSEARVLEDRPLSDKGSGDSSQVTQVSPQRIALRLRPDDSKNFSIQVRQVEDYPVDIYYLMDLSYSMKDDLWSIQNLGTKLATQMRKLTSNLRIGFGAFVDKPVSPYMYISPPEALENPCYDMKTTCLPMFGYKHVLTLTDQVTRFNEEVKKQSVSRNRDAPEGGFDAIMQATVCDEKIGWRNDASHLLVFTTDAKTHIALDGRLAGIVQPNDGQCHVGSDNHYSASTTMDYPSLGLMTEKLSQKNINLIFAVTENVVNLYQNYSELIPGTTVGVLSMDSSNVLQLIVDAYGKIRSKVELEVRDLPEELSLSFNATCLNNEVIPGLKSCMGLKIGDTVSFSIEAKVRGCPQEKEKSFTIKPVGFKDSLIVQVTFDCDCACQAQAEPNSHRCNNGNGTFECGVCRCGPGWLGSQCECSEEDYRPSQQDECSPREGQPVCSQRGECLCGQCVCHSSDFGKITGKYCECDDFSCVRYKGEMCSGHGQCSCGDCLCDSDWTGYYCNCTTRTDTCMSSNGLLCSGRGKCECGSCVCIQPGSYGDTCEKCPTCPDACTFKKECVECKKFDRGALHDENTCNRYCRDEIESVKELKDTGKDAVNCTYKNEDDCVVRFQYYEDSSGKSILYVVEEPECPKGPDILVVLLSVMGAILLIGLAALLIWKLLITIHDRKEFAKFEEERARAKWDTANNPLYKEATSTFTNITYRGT
Description: The following scheme describes the split and mix assembly of the libraries: • i.) n times [BB1+Oligo1→BB1−Oligo1] in separate wells • Optionally purify product • ii.) mix all n wells into one tube • iii.) split product of ii.) into m separate wells • iv.) m times [BB2+BB1−Oligo1+Oligo2→BB2−BB1−Oligo1−Oligo2] in separate wells • Optionally purify product • v.) mix all m wells into one tube • vi.) split product of v.) into p separate wells • vii.) p times [BB3+BB2−BB1−Oligo1−Oligo2+Oligo3→BB3−BB2−BB1−Oligo1−Oligo2−Oligo3] in separate wells Optionally purify product • viii.) mix all p wells into one tube • ix.) Selection was performed and binders isolated • x.) PCR of DNA and sequencing • xi.) Analyse for building block abundancy and full sequence information
Building block abundances analysis may be done by QPCR or by sequencing full sequences and then analyzing for the abundance of individual building blocks.
Two libraries of 61,875 members (Library 1 and 2) were generated as described in example 6 above and selected for binders of the Integrin αvβ3 receptor separately. The libraries were generated with 99 different building blocks in position 1, 25 different building blocks in position 2 and 25 different building blocks in position 3.
(§1) The identified sequences were then analyzed for the abundances of building blocks at each position in the sequence. The most abundant building blocks at each position from the two libraries 1 and 2 were then used again to generate a new and smaller library of 1,365 members, which was selected for binders of the Integrin αvβ3 receptor. The library was generated with 7 different building blocks in position 1, 13 different building blocks in position 2 and 15 different building blocks in position 3.

[2] = target: T1, Integrin αvβ3 receptor; test: Selection of the second-generation library (Library 3, 1,365 members) for binders of the Integrin αvβ3 receptor, then sequencing of isolated identifiers; conditions: 31 analysed sequences
Protocol: as §1
A subset of the isolated sequences from the library post selection was analysed:
These sequences could be translated into the following building block compositions: […]

[3] = target: integrin aVβ3 (Homo sapiens, UniProt P05106+P06756); test: Selection of the 700-member encoded library on immobilised integrin aVβ3, then PCR, cloning and sequencing of identifier codons; conditions: for Count (times the chemical entity's codon was seen after selection): 700-member library after selection, single building block at its position; for Count (times the chemical entity's codon was seen after selection) / share of sequences containing the chemical entity after selection: out of 51 sequences
Chain of integrin aVβ3 (P06756 31-889 limits assumed): as the sequence (P06756 31-889 limits assumed) above
Chain of integrin aVβ3 (P06756 891-1048 partner limits assumed): as the sequence (P06756 891-1048 partner limits assumed) above
Chain of integrin aVβ3 (P05106 27-788): as the sequence (P05106 27-788) above
Protocol: Maxisorp ELISA wells (NUNC A/S, Denmark) were coated with each 100 μL 2 μg/mL integrin aVβ3 in PBS buffer [2.8 mM NaH2PO4, 7.2 mM Na2HPO4, 0.15 M NaCl, pH 7.2] overnight at 4° C. Then the integrin solution was substituted for 200 μl blocking buffer [TBS, 0.05% Tween 20 (Sigma P-9416), 1% bovine serum alnumin (Sigma A-7030), 1 mM MnCl2] which was left on for 3 hours at room temperature. Then the wells were washed 10 times with blocking buffer and the encoded library was added to the wells after diluting it 100 times with blocking buffer. Following 2 hours incubation at room temperature the wells were washed 10 times with blocking buffer. After the final wash the wells were cleared of wash buffer and subsequently inverted and exposed to UV light at 300-350 nm for 30 seconds using a trans-illuminator set at 70% power. Then 100 μl blocking buffer without Tween-20 was immediately added to each well, the wells were shaken for 30 seconds, and the solutions containing eluted identifiers were removed for PCR amplification.
A TOPO-TA (Invitrogen) ligation reaction is assembled with 4 μl PCR product, 1 μl salt solution (Invitrogen) and 1 μl vector. Water is added to 6 μl. The reaction is then incubated at RT for 30 min. Heat-shock competent TOP10 E. coli cells are then thawed on ice and 5 μl of the ligation reaction is added to the thawed cells. The cells are then incubated 30 min on ice, heatshocked in 42° C. water for 30 sec, and then put on ice again. 250 μl of growth medium is added to the cells and they are incubated 1 h at 37° C. The medium containing cells is then spread on a growth plate containing 100 μg/ml ampicillin and incubated at 37° C. for 16 hours.
Individual E. coli clones are then picked and transferred to PCR wells containing 50 μl water. These 50 μl were incubated at 94° C. for 5 minutes and used in a 20 μl in a 25 μl PCR reaction with […] of each TOPO primer M13 forward & M13 reverse and Ready-To-Go PCR beads (Amersham Biosciences). The following PCR profile is used: 94° C. 2 min, then 30×(94° C. 4 sec, 50° C. 30 sec, 72° C. 1, min) then 72° C. 10 min. Primers and nucleotides are then degraded by adding 1 μl 1:1 EXO/SAP mixture (USB corp.) to 2 μl PCR product and incubating at 37° C. for 15 min and then 80° C. for 15 min to heat-inactivate the enzymes. […] T7 primer is added and water is added to 12 μl. Then 8 μl DYEnamic ET cycle sequencing Terminator Mix (Applied biosystems) is added to each well. A thermocycling profile of 30×(95° C. 20 sec, 50° C. 15 sec, 60° C. 1 min) is then run. Then 10 μl water is added to each well and sequencing reactions are purified using seq96 spinplates (Amersham Biosciences). Reactions are then run on a MegaBace capillary electrophoresis instrument (Molecular Dynamics) using injection parameters 2 kV, 50 sec and run parameters: 9 kV 45 min and analyzed using Contig Express software (Informax).
After the selection as described above, the codons in the identifier oligonucleotides were analysed. Before the analysis, the identifier oligonucleotides were amplified using the constant flanking regions and the amplified material was used in the identifier sequence analysis.

Row | Compound | Count (times the chemical entity's codon was seen after selection) [3] | other results
1 | N[C@H](CC(=O)O)C(=O)O [BBA000152, D-Asp] |  | More abundant in position 1 in library no. ([1]; building block chosen for Library 3 position 1): 1; More abundant in position 2 in library no. [1]: 2; building block abundance per position in sequences isolated post selection [2]: also found
2 | C=CCCC(=O)N[C@H]1CCCC[C@H]1C(=O)O [BBA0003152] | 1 | 
3 | O=C(O)c1csc(-c2cccnc2)n1 [BBA0008512] | 2 | 
4 | C=CCCC(=O)NCc1cccc(C(=O)O)c1 [BBA0003132] | 1 | 
5 | C=CCCC(=O)N1CCCC[C@H]1C(=O)O [BBA0004232] | 2 | 
6 | C=CCCC(=O)N[C@@H]1CC[C@H](C(=O)O)C1 [BBA0004222] |  | More abundant in position 2 in library no. [1]: 2
7 | C=CCCC(=O)NCc1ccc(C(=O)O)cc1 [BBA0003172] | 2 | 
8 | C=CCCC(=O)C(CCC(=O)O)CC1CC1 (stereo not shown) [BBA0001011] | 1 | 
9 | CC(CCCC(=O)O)Nc1ccccn1 (stereo not shown) [BBA0001401] |  | More abundant in position 3 in library no. [1]: 2
10 | O=C(O)CCCNc1ccccn1 [BBA0000531] | 35 | share of the chemical entity before the selection [3]: 14%; share of sequences containing the chemical entity after selection [3]: 68%; More abundant in position 3 in library no. [1]: 2
11 | C=CCCC(=O)N1CCC[C@H]1C(=O)O [BBA0003142] | 1 | 
12 | CC(CCC(=O)O)Nc1ccccn1 (stereo not shown) [BBA0001391] | 9 | More abundant in position 3 in library no. [1]: 2
13 | C=CCCC(=O)NCC(=O)O [BBA0000592] |  | More abundant in position 2 in library no. [1]: 1
14 | C=CCCC(=O)N1CCC[C@@H]1C(=O)O [BBA000064] | 1 | 
15 | C=CCCC(=O)N[C@H]1CC[C@@H](C(=O)O)C1 [BBA0004212] | 2 | 
16 | CC(C)(C)OC(=O)NC(CCCCNC(=O)c1ccccn1)C(=O)O (stereo not shown) [BBA0008312] | 1 | 
17 | N[C@@H](CC(=O)O)C(=O)O [BB-A-000098, L-Asp] | 47 | share of the chemical entity before the selection [3]: 25%; share of sequences containing the chemical entity after selection [3]: 92%; More abundant in position 3 in library no. [1]: 1; building block abundance per position in sequences isolated post selection [2]: dominated
18 | O=C(O)CCCc1ccc2c(n1)NCCC2 [BBA0001006] | 4 | 
19 | C=CCCC(=O)NCCCC(=O)O [BBA0004182] | 5 | 
20 | C=CCCC(=O)N(CCC)CCC(=O)O [BBA0001101] | 2 | 
21 | C=CCCC(=O)N1CCCC[C@@H]1C(=O)O [BBA0004242] | 6 | 
22 | C=CCCC(=O)N[C@@H](C)CC(=O)O [BBA000099, Gly] | 14 | share of the chemical entity before the selection [3]: 4%; share of sequences containing the chemical entity after selection [3]: 27%; building block abundance per position in sequences isolated post selection [2]: dominated
23 | C=CCCC(=O)N1CC(C(=O)O)C1 [BBA0001582] | 13 | 
24 | C=CCCC(=O)N1CCCC(C(=O)O)C1 (stereo not shown) [BBA0000832] |  | More abundant in position 2 in library no. [1]: 1
